Assay results as given in US10017827B2, “Herbicide-resistant sunflower plants with multiple herbicide resistant alleles of AHASL1 and methods of use” (BASF AGROCHEMICAL PRODUCTS B.V., priority 2007, dated 2018).
Read-outs that look alike come from different tables or passages of the source. Marks after values point to notes of the source that are not given here.

Assays:
[1] = test system: AHAS enzyme, WT line (B7); assay: Enzyme assay for AHAS activity, Sets 1 and 2; settings: 100 μM imazamox
[2] = test system: sunflower line L5 (BTK 47, WT susceptible); settings: for biomass accumulation, % of untreated: L5, 14 DAT
[3] = test system: sunflower line GM40 (A122T); type: in vivo; settings: 160 gr/ha at V4, 14 DAT
[4] = test system: A122T sunflower genotypes (mean of H2, L3, L4); assay: Greenhouse whole-plant response to imazapyr; type: in vivo; settings: 14 DAT
Description: (§1) Experiment was arranged as a randomized block design with a full factorial (sunflower line×treatment) arrangement of treatments and 10 replications.

[5] = test system: sunflower line L3 (cmsGM40, A122T); assay: Greenhouse whole-plant response to imazapyr; type: in vivo; settings: 14 DAT
Description: as §1

[6] = test system: sunflower line L4 (A122T); assay: Greenhouse whole-plant response to imazapyr; type: in vivo; settings: 14 DAT
Description: as §1

[7] = test system: sunflower line GM1606 (A122T/A122T); assay: Greenhouse whole-plant response to metsulfuron; settings: 14 DAT
[8] = test system: sunflower line L4 (A122T/A122T); assay: Greenhouse whole-plant response to metsulfuron; settings: 14 DAT
[9] = test system: sunflower hybrid cmsGM40xBTSu-R1 (A122T/P197L); assay: Greenhouse whole-plant response to metsulfuron; settings: 14 DAT
sunflower line B770 (WT) = assay: Greenhouse whole-plant response to metsulfuron; settings: 14 DAT
[10] = test system: sunflower line GM40 (A122T/A122T); assay: Greenhouse whole-plant response to metsulfuron; settings: 14 DAT
[11] = test system: sunflower hybrid cmsGM40xL4 (A122T/A122T); assay: Greenhouse whole-plant response to metsulfuron; settings: 14 DAT
[12] = A122T mean (H2,L3,L4), 2x (160 g ai/ha)
[13] = A122T mean (H2,L3,L4), 3x (240 g ai/ha)

## COCc1cnc(C2=NC(C)(C(C)C)C(=O)N2)c(C(=O)O)c1 (stereo not shown) [imazamox]
[1]; Set 1
  AHAS activity, % of untreated control: 17%
[1]; Set 2
  AHAS activity, % of untreated control: 11%

## CC(C)C1(C)N=C(c2ncccc2C(=O)O)NC1=O (stereo not shown) [imazapyr]
[2]; 1x (80 g ai/ha)
  biomass accumulation, % of untreated: 15.0%
[2]; 2x (160 g ai/ha)
  biomass accumulation, % of untreated: 15.0%
[2]; 3x (240 g ai/ha)
  biomass accumulation, % of untreated: 15.0%
[2]; 4x (320 g ai/ha)
  biomass accumulation, % of untreated: 15.0%
[2]; 5x (400 g ai/ha)
  biomass accumulation, % of untreated: 15.0%
[2]; 6x (480 g ai/ha)
  biomass accumulation, % of untreated: 15.0%
[2]; in vivo
  Phytotoxicity Index (0-9): 9
[3]
  Mean Phytotoxicity Index (PI, 0-9): 0.2
[4]; A122T homozygous, 0.5x
  height reduction, % of untreated controls: 0.1%
[4]; A122T homozygous, 6x
  height reduction, % of untreated controls: 18.8%
[4]; A122T homozygous, higher dose (6x)
  reduction in biomass weight: 25%
[4]; A122T mean (H2,L3,L4), 0.5x (40 g ai/ha)
  Phytotoxicity Index (0-9): 0.3
[4]; A122T mean (H2,L3,L4), 1x (80 g ai/ha)
  Phytotoxicity Index (0-9): 0.3
[4]; [12]
  Phytotoxicity Index (0-9): 0.3
  plant height, % of untreated: 98.0%
[4]; [13]
  Phytotoxicity Index (0-9): 0.3
  biomass accumulation, % of untreated: 90.0** %
[4]; A122T mean (H2,L3,L4), 4x (320 g ai/ha)
  Phytotoxicity Index (0-9): 0.5
[4]; A122T mean (H2,L3,L4), 5x (400 g ai/ha)
  Phytotoxicity Index (0-9): 0.8
[4]; A122T mean (H2,L3,L4), 6x (480 g ai/ha)
  Phytotoxicity Index (0-9): 1.2
[5]; 0.5x (40 g ai/ha)
  Phytotoxicity Index (0-9): 0.4
[5]; 1x (80 g ai/ha)
  Phytotoxicity Index (0-9): 0.4
[5]; 2x (160 g ai/ha)
  Phytotoxicity Index (0-9): 0.4
  plant height, % of untreated: 92.0%
[5]; 3x (240 g ai/ha)
  Phytotoxicity Index (0-9): 0.5
[5]; 4x (320 g ai/ha)
  Phytotoxicity Index (0-9): 1.0
  biomass accumulation, % of untreated: 75.0%
[5]; 5x (400 g ai/ha)
  Phytotoxicity Index (0-9): 2.0
[5]; 6x (480 g ai/ha)
  Phytotoxicity Index (0-9): 2.5
[6]; 0.5x (40 g ai/ha)
  Phytotoxicity Index (0-9): 0.0
  biomass accumulation, % of untreated: 100.0%
  plant height, % of untreated: 100.0%
[6]; 1x (80 g ai/ha)
  Phytotoxicity Index (0-9): 0.0
  plant height, % of untreated: 100.0%
[6]; 2x (160 g ai/ha)
  Phytotoxicity Index (0-9): 0.0
  biomass accumulation, % of untreated: 97.0%
[6]; 3x (240 g ai/ha)
  Phytotoxicity Index (0-9): 0.0
  plant height, % of untreated: 97.0%
[6]; 4x (320 g ai/ha)
  Phytotoxicity Index (0-9): 0.0
[6]; 5x (400 g ai/ha)
  Phytotoxicity Index (0-9): 0.0
[6]; 6x (480 g ai/ha)
  Phytotoxicity Index (0-9): 0.5

## COC(=O)c1ccccc1S(=O)(=O)NC(=O)Nc1nc(C)nc(OC)n1 [metsulfuron]
[7]; 1X (5 g ai./ha)
  Dry Matter accumulation (DMA): 30.39^b
  Mean Height Reduction (PH): 21.55^a
  Phytotoxicity Index (PI, 0-9): 8.70^d
[7]; 2X (10 g ai./ha)
  Dry Matter accumulation (DMA): 20.45^a
  Mean Height Reduction (PH): 21.70^a
  Phytotoxicity Index (PI, 0-9): 9.00^d
[8]; 1X (5 g ai./ha)
  Dry Matter accumulation (DMA): 25.40^ab
  Mean Height Reduction (PH): 19.47^a
  Phytotoxicity Index (PI, 0-9): 8.25^b
[8]; 2X (10 g ai./ha)
  Dry Matter accumulation (DMA): 18.80^a
  Mean Height Reduction (PH): 18.73^a
  Phytotoxicity Index (PI, 0-9): 8.5^c
[9]; 1X (5 g ai./ha)
  Mean Height Reduction (PH): 77.04^b
  Phytotoxicity Index (PI, 0-9): 0.00^a
[9]; 2X (10 g ai./ha)
  Dry Matter accumulation (DMA): 72.66^c
Sunflower line B770 (WT); 1X (5 g ai./ha)
  Dry Matter accumulation (DMA): 28.43^b
  Mean Height Reduction (PH): 21.73^a*
  Phytotoxicity Index (PI, 0-9): 8.50^bc
Sunflower line B770 (WT); 2X (10 g ai./ha)
  Dry Matter accumulation (DMA): 28.77^b
  Mean Height Reduction (PH): 18.20^a
  Phytotoxicity Index (PI, 0-9): 9.00^d
[10]; 1X (5 g ai./ha)
  Dry Matter accumulation (DMA): 25.73^ab
  Mean Height Reduction (PH): 21.39^a
  Phytotoxicity Index (PI, 0-9): 9.00^d
[10]; 2X (10 g ai./ha)
  Dry Matter accumulation (DMA): 20.69^a
  Mean Height Reduction (PH): 21.17^a
  Phytotoxicity Index (PI, 0-9): 9.00^d
[11]; 1X (5 g ai./ha)
  Dry Matter accumulation (DMA): 19.90^a
  Mean Height Reduction (PH): 22.45^a
  Phytotoxicity Index (PI, 0-9): 8.67^d
[11]; 2X (10 g ai./ha)
  Dry Matter accumulation (DMA): 18.23^a
  Mean Height Reduction (PH): 20.56^a
  Phytotoxicity Index (PI, 0-9): 8.82^cd
